Experimental data taken from patent publication US12257247B2 (Monte Rosa Therapeutics AG, priority 2023, dated 2025).
Like-named read-outs stand apart in the source and are kept apart here.

Target: T1, VAV1 (Homo sapiens, UniProt P15498+Q96SW2)
T1 construct: A heterozygous VAV1 C-terminal HiBiT knock-in pool was generated at Monte Rosa Therapeutics from a clonal Jurkat cell; endogenous in cells; host or cells: Jurkat clone stably expressing LgBiT, homozygous GSPT1-G575N; heterozygous VAV1-HiBiT knock-in pool
Experiment: VAV1 degradation activity, VAV1-HiBiT knock-in Jurkat luminescence assay (Example A, Table 1)
Assay type: cell-based
Conditions: VAV1-HiBiT knock-in Jurkat cells, luminescence read at 6 and 24 hours; for Dmax: Jurkat
How it was run: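 Jurkat cells carrying VAV1-HiBiT knock-in, plated in RPMI/10% FBS with Endurazine live-cell substrate and pre-incubated ~16 h at 37° C. Compound dosed from 10 μM stock; luminescence read 6 and 24 h later. Response normalised to plate negative/positive controls, EC50 from 3-parameter logistic fit (hillslope 1).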

[1] = read-out: VAV1 DC50 (nM), class

| Dmax (read-out: VAV1 Dmax %) | Dmax (read-out: VAV1 Dmax %, class) | DC50 (read-out: VAV1 DC50) | DC50 [1] | SMILES |
| --- | --- | --- | --- | --- |
| 93.5% | > 90% | 13.9 nM | ≤ 100 nM | C[C@@H]1CCC(=O)N1c1ccc(-c2cccc(C3CCC(=O)NC3=O)c2Cl)cc1 (stereo partly shown) [Compound 303] |
| 72% | 60 to 90% | 274 nM | 100 to 1000 nM | CC1CCN(c2ccc(-c3cccc(C4CCC(=O)NC4=O)c3Cl)cc2)C1=O (stereo not shown) [Compound 304] |
| 89.1% | 60 to 90% | 49.2 nM | ≤ 100 nM | O=C1CCC(c2cccc(-c3ccc(N4CC(C(F)(F)F)OCC4=O)cc3)c2Cl)C(=O)N1 (stereo not shown) [Compound 306] |
| 96% | > 90% | 9.64 nM | ≤ 100 nM | O=C1CCC(c2cccc(-c3ccc(N4CC5CC5CC4=O)cc3)c2Cl)C(=O)N1 (stereo not shown) [Compound 307] |
| 92.7% | > 90% | 21.9 nM | ≤ 100 nM | CC1(C)CN(c2ccc(-c3cccc(C4CCC(=O)NC4=O)c3Cl)cc2)C(=O)CO1 (stereo not shown) [Compound 311] |
| 96.1% | > 90% | 7.99 nM | ≤ 100 nM | O=C1CCC(c2cccc(-c3ccc(N4CCC5CC5C4=O)cc3)c2Cl)C(=O)N1 (stereo not shown) [Compound 312] |
| 96.1% | > 90% | 9.68 nM | ≤ 100 nM | CC1CCC(=O)N(c2ccc(-c3cccc(C4CCC(=O)NC4=O)c3Cl)cc2)C1 (stereo not shown) [Compound 314] |
| 97.2% | > 90% | 5.24 nM | ≤ 100 nM | COC1CCCC(=O)N1c1ccc(-c2cccc(C3CCC(=O)NC3=O)c2Cl)cc1 (stereo not shown) [Compound 318] |
| 80.8% | 60 to 90% | 104 nM | 100 to 1000 nM | O=C1CCC(c2cccc(-c3ccc(N4CC5CC5C4=O)cc3)c2Cl)C(=O)N1 (stereo not shown) [Compound 319] |
| 95% | > 90% | 10.6 nM | ≤ 100 nM | O=C1CCC(c2cccc(-c3ccc(N4CCCC(F)C4=O)cc3)c2Cl)C(=O)N1 (stereo not shown) [Compound 323] |
| 96.2% | > 90% | 6.66 nM | ≤ 100 nM | C[C@H]1COCC(=O)N1c1ccc(-c2cccc(C3CCC(=O)NC3=O)c2Cl)cc1 (stereo partly shown) [Compound 325] |
| 95.8% | > 90% | 6.62 nM | ≤ 100 nM | CC1CCCN(c2ccc(-c3cccc(C4CCC(=O)NC4=O)c3Cl)cc2)C1=O (stereo not shown) [Compound 329] |
| 91.6% | > 90% | 17.2 nM | ≤ 100 nM | CN1CCN(c2ccc(-c3cccc(C4CCC(=O)NC4=O)c3Cl)cc2)C(=O)C1 (stereo not shown) [Compound 331] |
| 95.5% | > 90% | 10.6 nM | ≤ 100 nM | CC1CCN(c2ccc(-c3cccc(C4CCC(=O)NC4=O)c3Cl)cc2)C(=O)C1 (stereo not shown) [Compound 332] |
| 93.5% | > 90% | 17.4 nM | ≤ 100 nM | O=C1CCC(c2cccc(-c3ccc(N4CCOCC4=O)cc3)c2Cl)C(=O)N1 (stereo not shown) [Compound 336] |

Further lines, the compound ahead of its results:

| SMILES | Dmax (read-out: VAV1 Dmax %) | Dmax (read-out: VAV1 Dmax %, class) | DC50 (read-out: VAV1 DC50) | DC50 [1] |
| --- | --- | --- | --- | --- |
| O=C1CCC(c2cccc(-c3ccc(CN4Cc5ncccc5C4=O)cc3)c2Cl)C(=O)N1 (stereo not shown) [Compound 298] | 95.4% | > 90% | 11.7 nM | ≤ 100 nM |
| O=C1CCC(c2cccc(-c3ccc(CN4Cc5cccnc5C4=O)cc3)c2Cl)C(=O)N1 (stereo not shown) [Compound 299] | 91.6% | > 90% | 91.5 nM | ≤ 100 nM |
| O=C1CCC(c2cccc(-c3ccc(CN4Cc5cnccc5C4=O)cc3)c2Cl)C(=O)N1 (stereo not shown) [Compound 300] | 94.3% | > 90% | 17.1 nM | ≤ 100 nM |
| O=C1CCC(c2cccc(-c3ccc(CN4Cc5ccncc5C4=O)cc3)c2Cl)C(=O)N1 (stereo not shown) [Compound 301] | 86.2% | 60 to 90% | 71.2 nM | ≤ 100 nM |
| O=C1CCC(c2cccc(-c3ccc(CN4CCOCC4=O)cc3)c2Cl)C(=O)N1 (stereo not shown) [Compound 302] | 78% | 60 to 90% | 92.1 nM | ≤ 100 nM |
| O=C1CCC(c2cccc(-c3ccc(N4C(=O)OCCC4C(F)(F)F)cc3)c2Cl)C(=O)N1 (stereo not shown) [Compound 305] | 93% | > 90% | 19.6 nM | ≤ 100 nM |
| O=C1CCC(c2cccc(-c3ccc(N4CCN5CCCC5C4=O)cc3)c2Cl)C(=O)N1 (stereo not shown) [Compound 308] | 93.8% | > 90% | 22.5 nM | ≤ 100 nM |
| O=C1CCC(c2cccc(-c3ccc(N4CCn5ccnc5C4=O)cc3)c2Cl)C(=O)N1 (stereo not shown) [Compound 309] | 89.6% | 60 to 90% | 39.4 nM | ≤ 100 nM |
| O=C1CCC(c2cccc(-c3ccc(N4CCC5(COC5)CC4=O)cc3)c2Cl)C(=O)N1 (stereo not shown) [Compound 310] | 90.5% | > 90% | 23 nM | ≤ 100 nM |
| Cn1ncc2c1CCN(c1ccc(-c3cccc(C4CCC(=O)NC4=O)c3Cl)cc1)C2=O (stereo not shown) [Compound 313] | 95.3% | > 90% | 7.02 nM | ≤ 100 nM |
| O=C1CCC(c2cccc(-c3ccc(N4CCn5cncc5C4=O)cc3)c2Cl)C(=O)N1 (stereo not shown) [Compound 315] | 89.8% | 60 to 90% | 22 nM | ≤ 100 nM |
| Cn1ncc2c1CCC(=O)N2c1ccc(-c2cccc(C3CCC(=O)NC3=O)c2Cl)cc1 (stereo not shown) [Compound 316] | 93.3% | > 90% | 11.8 nM | ≤ 100 nM |
| CN1CC(=O)N(c2ccc(-c3cccc(C4CCC(=O)NC4=O)c3Cl)cc2)CC1(C)C (stereo not shown) [Compound 317] | 93.2% | > 90% | 13.6 nM | ≤ 100 nM |
| O=C1CCC(c2cccc(-c3ccc(N4CCOC(F)(F)C4=O)cc3)c2Cl)C(=O)N1 (stereo not shown) [Compound 320] | 84.9% | 60 to 90% | 102 nM | 100 to 1000 nM |
| O=C1CCC(c2cccc(-c3ccc(N4CCn5nccc5C4=O)cc3)c2Cl)C(=O)N1 (stereo not shown) [Compound 321] | 88.1% | 60 to 90% | 22.5 nM | ≤ 100 nM |
| O=C1CCC(c2cccc(-c3ccc(N4CCCC(F)(F)C4=O)cc3)c2Cl)C(=O)N1 (stereo not shown) [Compound 322] | 93.9% | > 90% | 17.7 nM | ≤ 100 nM |
| O=C1CCC(c2cccc(-c3ccc(N4C(=O)COCC45CC5)cc3)c2Cl)C(=O)N1 (stereo not shown) [Compound 324] | 97.8% | > 90% | 3.46 nM | ≤ 100 nM |
| CN1CC(=O)N(c2ccc(-c3cccc(C4CCC(=O)NC4=O)c3Cl)cc2)c2cncnc21 (stereo not shown) [Compound 326] | 90.9% | > 90% | 16.2 nM | ≤ 100 nM |
| O=C1CCC(c2cccc(-c3ccc(N4C(=O)C[C@@H]5CCC[C@@H]54)cc3)c2Cl)C(=O)N1 (stereo partly shown) [Compound 327] | 89.3% | 60 to 90% | 30.1 nM | ≤ 100 nM |
| O=C1CCC(c2cccc(-c3ccc(N4Cc5nccn5CC4=O)cc3)c2Cl)C(=O)N1 (stereo not shown) [Compound 328] | 90.8% | > 90% | 15 nM | ≤ 100 nM |
| O=C1CCC(c2cccc(-c3ccc(N4C(=O)CCn5nccc54)cc3)c2Cl)C(=O)N1 (stereo not shown) [Compound 330] | 72.1% | 60 to 90% | 130 nM | 100 to 1000 nM |
| Cc1nn(C)c2c1N(c1ccc(-c3cccc(C4CCC(=O)NC4=O)c3Cl)cc1)C(=O)CO2 (stereo not shown) [Compound 333] | 98.2% | > 90% | 3.17 nM | ≤ 100 nM |
| CN1CC(=O)N(c2ccc(-c3cccc(C4CCC(=O)NC4=O)c3Cl)cc2)c2cnccc21 (stereo not shown) [Compound 334] | 93.5% | > 90% | 11.1 nM | ≤ 100 nM |
| CN1CC(=O)N(c2ccc(-c3cccc(C4CCC(=O)NC4=O)c3Cl)cc2)c2cccnc21 (stereo not shown) [Compound 335] | 97.3% | > 90% | 5.87 nM | ≤ 100 nM |
| O=C1CCC(c2cccc(-c3ccc(C4(N5CCCCC5=O)CC4)cc3)c2Cl)C(=O)N1 (stereo not shown) [Compound 337, 3-[2-chloro-3-[4-[1-(2-oxo-1-piperidyl)cyclopropyl]phenyl]phenyl]piperidine-2,6-dione] | 40% | < 60% | 5770 nM | > 1000 nM |
| O=C1CCC(c2cccc(-c3ccc(N4CCOCC4)cc3)c2Cl)C(=O)N1 (stereo not shown) [Compound 338, 3-(2-chloro-4′-morpholino-[1,1′-biphenyl]-3-yl)piperidine-2,6-dione] | 57.8% | < 60% | 2170 nM | > 1000 nM |
| O=C1CCC(c2cccc(-c3ccc(N4C(=O)CCCC45CCC5)cc3)c2Cl)C(=O)N1 (stereo not shown) [Compound 339, 3-(2-chloro-4′-(6-oxo-5-azaspiro[3.5]nonan-5-yl)-[1,1′-biphenyl]-3-yl)piperidine-2,6-dione] | 98.2% | > 90% | 1.96 nM | ≤ 100 nM |
| O=C1CCC(c2cccc(-c3ccc(Cc4nccc(C5COC5)n4)cc3)c2Cl)C(=O)N1 (stereo not shown) [Compound 340, 3-(2-chloro-4′-((4-(oxetan-3-yl)pyrimidin-2-yl)methyl)-[1,1′-biphenyl]-3-yl)piperidine-2,6-dione] | 96.6% | > 90% | 5.86 nM | ≤ 100 nM |
